From ChEMBL document CHEMBL1201862, “PubChem BioAssay data set” (2004)
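The compound was tested at five concentrations on cells cultured in 96-well plates, with a 48-hour exposure period. GI50: concentration for 50% inhibition of growth.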 The source made the active and inactive calls. No stated cut-off is given here; in the data, active = GI50 up to about 1.1 µM and inactive = higher.

Assays:
Test in all cases: inhibition of tumour cell growth, NCI panel, 48 h
Malme-3M = test system: Malme-3M
M14 = test system: M14
COLO 205 = test system: COLO 205
MDA-MB-231 = test system: MDA-MB-231
UACC-62 = test system: UACC-62
ACHN = test system: ACHN
NCI-H23 = test system: NCI-H23
MDA-N = test system: MDA-N
HL-60 = test system: HL-60
MDA-MB-435 = test system: MDA-MB-435
RXF 393 = test system: RXF 393
UACC-257 = test system: UACC-257
HOP-62 = test system: HOP-62
EKVX = test system: EKVX
786-0 = test system: 786-0
K562 = test system: K562
KM12 = test system: KM12
A498 = test system: A498
SK-MEL-2 = test system: SK-MEL-2
OVCAR-4 = test system: OVCAR-4

Measured: GI50

C[N+](C)(C)CCOP(=O)([O-])OCCNC(=O)c1ccc2ccccc2c1
inactive: Malme-3M > 100 µM | M14 > 100 µM | COLO 205 > 100 µM | MDA-MB-231 > 100 µM | UACC-62 > 100 µM | ACHN > 100 µM | NCI-H23 > 100 µM | MDA-N > 100 µM | HL-60 > 100 µM | MDA-MB-435 > 100 µM | RXF 393 > 100 µM | UACC-257 > 100 µM | HOP-62 > 100 µM | EKVX > 100 µM | 786-0 > 100 µM | K562 > 100 µM | KM12 > 100 µM

Clc1ccc(-c2cc(-c3cc4cc(Br)ccc4nc3Cl)on2)cc1
inactive: A498 11.7 µM | Malme-3M 18.8 µM | M14 12.5 µM | COLO 205 8.28 µM | UACC-62 14.5 µM | ACHN 13.8 µM | NCI-H23 17.1 µM | MDA-N 11.8 µM | HL-60 1.7 µM | MDA-MB-435 11 µM | SK-MEL-2 9.71 µM | RXF 393 15.4 µM | OVCAR-4 16.2 µM | UACC-257 13 µM | HOP-62 6 µM | EKVX 4.93 µM | 786-0 18.9 µM | K562 15.1 µM | KM12 15.5 µM

COc1cc([N+](=O)[O-])c(S(=O)(=O)[O-])cc1-[n+]1nc(C(=O)Nc2ccccc2)nn1-c1ccc([N+](=O)[O-])c(S(=O)(=O)O)c1
inactive: Malme-3M > 100 µM | M14 > 100 µM | COLO 205 > 100 µM | MDA-MB-231 52.2 µM | UACC-62 > 100 µM | ACHN > 100 µM | NCI-H23 > 100 µM | MDA-N > 100 µM | HL-60 84.7 µM | MDA-MB-435 > 100 µM | SK-MEL-2 > 100 µM | RXF 393 > 100 µM | OVCAR-4 > 100 µM | HOP-62 > 100 µM | EKVX > 100 µM | 786-0 > 100 µM | K562 > 100 µM | KM12 > 100 µM

Cc1cc(C2(O)C=C(C(C)(C)C)C(=O)C(C(C)(C)C)=C2)c(C)cc1C1(O)C=C(C(C)(C)C)C(=O)C(C(C)(C)C)=C1
inactive: Malme-3M > 100 µM | M14 > 100 µM | COLO 205 > 100 µM | MDA-MB-231 > 100 µM | UACC-62 > 100 µM | ACHN > 100 µM | NCI-H23 > 100 µM | MDA-N > 100 µM | HL-60 > 100 µM | SK-MEL-2 > 100 µM | OVCAR-4 > 100 µM | UACC-257 > 100 µM | HOP-62 > 100 µM | EKVX > 100 µM | 786-0 > 100 µM | K562 > 100 µM | KM12 > 100 µM

Cc1cc(NS(=O)(=O)c2ccc(NC(=O)c3ccc4nc5ccccc5c(Nc5ccc(S(=O)(=O)Nc6cc(C)on6)cc5)c4c3)cc2)no1
inactive: Malme-3M > 50 µM | M14 > 50 µM | COLO 205 > 50 µM | MDA-MB-231 > 50 µM | UACC-62 > 50 µM | ACHN > 50 µM | NCI-H23 > 50 µM | MDA-N > 50 µM | HL-60 > 50 µM | MDA-MB-435 > 50 µM | SK-MEL-2 > 50 µM | RXF 393 > 50 µM | OVCAR-4 > 50 µM | UACC-257 > 50 µM | HOP-62 > 50 µM | EKVX > 50 µM | 786-0 > 50 µM | K562 > 50 µM | KM12 > 50 µM

CC[C@]1(Cc2ccc(OC)c(OC)c2)[C@@H]2C[C@@H](C3OCCO3)ON2O[C@H](OC2CCCC2(c2ccccc2)c2ccccc2)[C@@H]1OC(C)=O (some centres undefined)
inactive: M14 16.2 µM | COLO 205 26.9 µM | MDA-MB-231 44.3 µM | UACC-62 37.4 µM | ACHN 18.1 µM | NCI-H23 21 µM | MDA-N 36.1 µM | MDA-MB-435 21.5 µM | SK-MEL-2 15.7 µM | UACC-257 19.6 µM | HOP-62 19.6 µM | EKVX 21.1 µM | 786-0 20 µM | K562 17.7 µM | KM12 15.6 µM

COC(=O)c1c(C)cccc1/C=C1\Cc2cc(C)cc(C)c2C1=O
inactive: A498 51.2 µM | Malme-3M > 100 µM | M14 55 µM | MDA-MB-231 > 100 µM | UACC-62 10 µM | ACHN 27.9 µM | NCI-H23 51.1 µM | MDA-N > 100 µM | HL-60 > 100 µM | SK-MEL-2 13.2 µM | RXF 393 20.7 µM | OVCAR-4 9.75 µM | UACC-257 > 100 µM | HOP-62 12 µM | EKVX 37.6 µM | 786-0 16.3 µM | K562 > 100 µM | KM12 > 100 µM

NS(=O)(=O)c1cc2c(cc1Cl)NCNS2(=O)=O [HYDROCHLOROTHIAZIDE]
inactive: Malme-3M > 100 µM | M14 > 100 µM | COLO 205 > 100 µM | MDA-MB-231 > 100 µM | ACHN > 100 µM | NCI-H23 > 100 µM | MDA-N > 100 µM | HL-60 > 100 µM | MDA-MB-435 > 100 µM | SK-MEL-2 > 100 µM | OVCAR-4 > 100 µM | UACC-257 > 100 µM | HOP-62 > 100 µM | EKVX > 100 µM | 786-0 > 100 µM | K562 > 100 µM | KM12 > 100 µM

Cc1ccc(C2(N3CCCC3)OC(C)(C)c3cccc4cccc2c34)cc1 (centres undefined)
inactive: A498 16.2 µM | Malme-3M 18.1 µM | M14 17.4 µM | COLO 205 15.6 µM | UACC-62 13.7 µM | ACHN 15.8 µM | NCI-H23 16.2 µM | MDA-N 16.2 µM | HL-60 30.8 µM | MDA-MB-435 14.8 µM | SK-MEL-2 14.7 µM | RXF 393 13.5 µM | OVCAR-4 14.5 µM | UACC-257 16.9 µM | HOP-62 16 µM | EKVX 11.4 µM | 786-0 18.7 µM | K562 22.3 µM | KM12 27.9 µM

O=C(Sc1c(-c2ccccc2)c(=O)n(-c2ccccc2)c(=S)n1-c1ccccc1)c1cccs1
inactive: Malme-3M 86.3 µM | M14 53.6 µM | COLO 205 > 100 µM | UACC-62 > 10 µM | ACHN 81.8 µM | NCI-H23 > 100 µM | MDA-N 70 µM | HL-60 76 µM | MDA-MB-435 56.4 µM | SK-MEL-2 53 µM | OVCAR-4 > 100 µM | UACC-257 60.3 µM | HOP-62 > 100 µM | EKVX > 100 µM | 786-0 49.8 µM | K562 25.1 µM | KM12 > 100 µM

COC(=O)C1(Cc2ccccc2)Cc2ccccc2C1
inactive: Malme-3M 15.5 µM | M14 17.1 µM | COLO 205 19.1 µM | MDA-MB-231 32.7 µM | UACC-62 21.5 µM | ACHN 18.7 µM | NCI-H23 23.2 µM | MDA-N 17.3 µM | HL-60 14.3 µM | MDA-MB-435 19.2 µM | SK-MEL-2 11.5 µM | OVCAR-4 22.4 µM | UACC-257 24.4 µM | HOP-62 32.1 µM | EKVX 9.84 µM | 786-0 22.7 µM | K562 15.8 µM | KM12 21.8 µM
